From patent publication US20240123249A1, “ANALGESIA VIA LOW AND ULTRA-LOW FREQUENCY MAGNETIC OR ELECTROMAGNETIC FIELDS AND RELATED SYSTEMS AND METHODS” (EMulate Therapeutics, Inc., priority 2022, published 2024)

Assays:
mechanical hyperalgesia = assay: Carrageenan induced mechanical hyperalgesia, paw pressure test (Randall & Selitto); type: in vivo, rat
cold allodynia = assay: Oxaliplatin induced neuropathic cold allodynia, paw immersion test; conditions: rat, in vivo
tactile allodynia = assay: Bennett model of peripheral mononeuropathy, tactile allodynia by electronic Von Frey; type: in vivo, rat
[1] = 30 minutes after morphine 3 mg/kg / 24 hours after signal exposure
[2] = pair-wise Students T-test, α=0.01

COc1ccc2c(c1)c(CC(=O)O)c(C)n2C(=O)c1ccc(Cl)cc1 [Indomethacin]
applied pressure, carrageenan injected (injured) paw (mechanical hyperalgesia; 3 h after 2% carrageenan, signals 24 h exposure, Indomethacin 30 mg/kg, MC 1% group 218±18): 306±21 grams
Carrageenan: statistical significance (P) versus MC 1% group, injured paw (mechanical hyperalgesia; Dunnett's test after ANOVA, N=10): 0.01
Carrageenan model: significance versus MC 1% group, uninjured paw (mechanical hyperalgesia; left paw not injected with carrageenan, Dunnett's test): no significant differences between groups in the uninjured paws, except in the Indomethacin injected group

CNCC[C@H](Oc1cccc2ccccc12)c1cccs1 [duloxetine]
Oxaliplatin: statistical significance (P) versus MC 1% control group (cold allodynia): significantly increased
leg withdrawal time (latency of hind paw withdrawal) (cold allodynia): 13.2 ± 1.6 s

CN1CC[C@]23c4c5ccc(O)c4O[C@H]2[C@@H](O)C=C[C@H]3[C@H]1C5 [morphine]
average force applied, control paw, Post-Tx (tactile allodynia; [1]): 578±73 grams
average force applied, injured paw, Post-Tx (tactile allodynia; [1]): 438±51 grams
average force applied, control paw, Pre-Tx (tactile allodynia; before treatment): 300±30 grams
average force applied, injured paw, Pre-Tx (tactile allodynia; before treatment): 180±27 grams
Bennett: statistical significance (P) Pre-Tx vs. Post-Tx, Control Paw (tactile allodynia; [2]): < 0.00001
Bennett: statistical significance (P) Pre-Tx vs. Post-Tx, Injured Paw (tactile allodynia; [2]): reached statistical significance
